Test results as given in publication PMC10285648, “iTAG an optimized IMiD-induced degron for targeted protein degradation in human and murine cells” (iScience, 2023).

Columns and labels:
[1] = system: N-terminally tagged cMYC, RBM39, BRD4 (Flag-HA-DCD23 or Flag-HA-FKBP12^[F36V]); test: Western blotting, iTAG versus dTAG fused proteins in SUM159; format: cell-based, human; details: SUM159, dTAG-13 on dTAG, CC220 on iTAG
Method: The fusion constructs were stably expressed in SUM159 cells and loss of protein was determined by western blotting.
The protein lysates were probed for HA using western blotting. […] The protein lysates were probed for HA using western blotting. […] Median EGFP intensity was measured in each condition using flow cytometry. (3 independent experiments, represented as mean ± SD).
The dTAG system has also been adapted to direct targets to the E3 CRL2^VHL using the PROTAC dTAG^V-1^16. […] We evaluated the degradation N-terminally tagged cMYC and RBM39 dTAG^V-1, we included BRD4 as a control as it was reported to be a well degraded target in the initial dTAG optimization (Figure 3C).[15]
For the pHAGE-PGK constructs: DCD23, SuperDegron and FKBP12^F36V were separately cloned into a pHAGE-PGK DEST backbone. cDNA encoding the indicated protein was then cloned from pENTR221 into the pHAGE-PGK-DCD23, pHAGE-PGK-SuperDegron or pHAGE-PGK-FKBPF36V DEST vector using Gateway cloning. SUM159 cells were transduced with the indicated lentivirus and selected with puromycin.
Cells were lysed with SDS lysis buffer (2% SDS, 10% Glycerol, 50mM Tris pH 6.8) and boiled at 95°C for 30min. Protein concentration was measured using Pierce BCA Protein Assay Kit (ThermoFischer) following manufacturer’s recommendations. Samples were ran in NuPAGETM 10% Bis-Tris Midi electrophoresis gels (Invitrogen) using NuPAGETM MES SDS running buffer (ThermoFischer Scientific). Proteins were subsequently transferred to an Immobilon-P polyvinylidene Difluoride (PVDF) membrane (Merck Millipore) using the wet-transfer method (Bio-Rad) in a transfer buffer consisting of 20% (v/v) methanol and 10% protein electrophoresis buffer (24.77 mM Tris and 0.192 M glycine).
For western blotting membranes were blocked in a solution of 5% (w/v) bovine serum albumin (BSA; Sigma-Aldrich) dissolved in TBS-0.1% Tween 20 (Sigma-Aldrich) then incubated at 4°C overnight with the primary antibodies diluted in 5% (w/v) BSA/TBS-T. The membranes where then washed and incubated with anti-mouse and/or anti-rabbit secondary antibodies (LI-COR Biosciences) for 2h at RT diluted in 5% (w/v) BSA/TBS-T then washed and imaged using the LI-COR Odyssey (LI-COR Biosciences). Images were analyzed using Image Studio Lite software (LI-COR Biosciences).

[2] = system: Flag-HA-DCD23-RBM39, Flag-HA-DCD23-SMS; test: Quantitative TMT proteomics of CT26 expressing iTAG-tagged RBM39 or SMS; format: cell-based, mouse; details: CT26, 10uM, 8h
Method: The protein lysates were probed for EGFP using western blotting. […] EGFP signal was then measured using flow cytometry. (3 independent experiments, normalized to the control and represented as mean ± SD). […] Data are plotted as Log2 fold change relative to DMSO versus Log10 of p value.
We then tested the degradation of RBM39 (nuclear) and SMS (cytoplasmic) N-terminally tagged with iTAG (DCD23) in CT26 and AT3 ([…]) (Figures 5C–5E).
Samples for quantitative proteomics were prepared using the SimPLIT workflow.[60] […] Samples were bath sonicated for 5 min, incubated at RT for 45 min and protein concentration was measured with the Bradford Protein Assay (Biorad) according to manufacturer instructions. […]
LC-MS analysis was performed on the Dionex Ultimate 3000 UHPLC system coupled with the Orbitrap Lumos mass spectrometer (Thermo Scientific). Samples were analyzed with the EASY-Spray C18 capillary column (75 μm × 50 cm, 2 μm) at 50°C. […] MS3 quantification was obtained with higher-energy collisional dissociation (HCD) fragmentation of the top 5 most abundant CID fragments isolated with synchronous precursor selection (SPS). […]
The SEQUEST-HT search engine was used to analyze the acquired mass spectra in Proteome Discoverer 2.4 (Thermo Scientific) for protein identification and quantification. […]

For O=C1CC[C@H](N2Cc3c(OCc4ccc(CN5CCOCC5)cc4)cccc3C2=O)C(=O)N1 [CC220, Iberdomide], the “concentrations at which targets are degraded” value [1] was 0.01 to 10 µM, the “time of onset of degradation of cMYC and RBM39” value ([1]; 1, 2 or 4h) was ≤ 1 h and the “degradation of iTAG (DCD23) tagged RBM39 and SMS” value [2] was “robust degradation”. The off-targets in proteome [2] was “without any detected off-targets”.
